According to patent US7820699B2, “Cyclic amines” (Hoffmann-La Roche Inc., priority 2005, dated 2010):

target: T1, human factor Xa (Homo sapiens, UniProt P00742); assay: chromogenic peptide substrate assay, inhibition of factor Xa; assay type: biochemical; conditions: human factor Xa 3 nM, chromogenic substrate S-2222, pH 7.8, room temperature; Ki from IC50 by Cheng-Prusoff
T1 construct: purchased Enzyme Research Laboratories
Experimental: Factor Xa activity was measured spectrophotometrically in microtiter plates in a final volume of 150 μl using the following conditions: Inhibition of human factor Xa (Enzyme Research Laboratories) was tested at an enzyme concentration of 3 nM using the chromogenic substrate S-2222 (Chromogenix AB, Molndal, Sweden) at […]. The reaction kinetics of the enzyme and the substrate were linear with both time and the enzyme concentration. The inhibitors were dissolved in DMSO and tested at various concentrations up to 100 μM. The inhibitors were diluted using HNPT buffer consisting of HEPES 100 mM, NaCl 140 mM, PEG 6000 0.1% and Tween 80 0.02%, pH 7.8. The cleavage of S-2222 by human factor Xa was followed at 405 nm for 5 minutes at room temperature. The velocity of the reaction was determined by the autoreader from the slope of the linear regression fit to 7 time points (1 minute). The initial velocity for each inhibitor concentration was determined by the slope of at least 4 time points in the linear phase by a linear regression fit […]. Apparent dissociation constants Ki were calculated according to Cheng and Prusoff [Cheng, Y. C.; Prusoff, W. H. Relationship between the inhibition constant (Ki) and the concentration of the inhibitor that causes 50 percent inhibition (IC50) of an enzyme reaction. Biochem. Pharmacol. 1973, 22, 3099-3108.] based on the IC50 and the respective Km, determined previously (Ki=IC50/(1+S/Km)). The Km for the substrate used was determined under the conditions of the test with at least 5 substrate concentrations ranging from 0.5 to 15 times Km. [Lottenberg R, Hall J A, Blinder M, Binder E P, Jackson C M., The action of thrombin on peptide p-nitroanilide substrates. Substrate selectivity and examination of hydrolysis under different reaction conditions. Biochim Biophys Acta. 1983 Feb. 15; 742(3):539-57]. According to Eadie [Eadie G. S. The inhibition of cholinesterase by physostigmine and prostigmine. J. Biol. Chem. 1942, 146, 85-93.], the Km for S-2222 amounted to 613 μM.

T1 sequence (P00742 235-488 limits assumed): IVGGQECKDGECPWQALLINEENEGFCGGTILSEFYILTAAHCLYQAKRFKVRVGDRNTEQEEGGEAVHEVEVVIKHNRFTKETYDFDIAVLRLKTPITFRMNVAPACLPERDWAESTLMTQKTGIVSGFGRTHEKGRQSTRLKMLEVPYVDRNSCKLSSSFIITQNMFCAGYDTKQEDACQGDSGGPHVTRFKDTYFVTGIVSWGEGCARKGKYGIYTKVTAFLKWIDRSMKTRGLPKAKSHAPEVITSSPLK
T1 sequence (P00742 41-179 partner limits assumed): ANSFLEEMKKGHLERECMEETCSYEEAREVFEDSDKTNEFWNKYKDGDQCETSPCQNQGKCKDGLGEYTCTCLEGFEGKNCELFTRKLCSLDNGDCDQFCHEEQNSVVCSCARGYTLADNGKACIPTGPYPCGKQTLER

Row | Compound | Ki
1 | CO[C@H]1CN(CC(=O)Nc2ccc(N3CCOCC3=O)cc2F)C[C@@H]1NC(=O)c1ccc(Cl)s1 [Example 26, 5-chloro-thiophene-2-carboxylic acid ((3S,4S)-1-{[2-fluoro-4-(3-oxo-morpholin-4-yl)-phenylcar-bamoyl]-methyl}-4-methoxy-pyrrolidin-3-yl)-amide] | 0.014 µM
2 | CN(C1CN(C(=O)Nc2ccc(-n3ccccc3=O)cc2F)C[C@H]1CNC(=O)c1ccc(Cl)s1)S(C)(=O)=O (stereo partly drawn) [Example 85, (R)-3-{[(5-chloro-thiophene-2-carbonyl)-amino]-methyl}-4-(methanesulfonyl-methyl-amino)-pyrrolidine-1-carboxylic acid[2-fluoro-4-(2-oxo-2H-pyridin-1-yl)-phenyl]-amide] | 0.012 µM
3 | O=C(NC[C@@H]1CN(C(=O)Nc2ccc(-n3ccccc3=O)cc2F)C[C@H]1C(F)(F)F)c1ccc(Cl)s1 [Example 77, (3R,4S)-3-{[(5-chloro-thiophene-2-carbonyl)-amino]-methyl}-4-trifluoromethyl-pyrrolidine-1-carboxy-lic acid[2-fluoro-4-(2-oxo-2H-pyridin-1-yl)-phenyl]-amide] | 0.008 µM
4 | O=C(NC[C@H]1CCN(C(=O)Nc2ccc(-n3ccccc3=O)cc2F)C1)c1ccc(Cl)s1 [Example 54, (R)-3-{[(5-chloro-thiophene-2-carbonyl)-amino]-methyl}-pyrrolidine-1-carboxylic acid[2-fluoro-4-(2-oxo-2H-pyridin-1-yl)-phenyl]-amide] | 0.013 µM
5 | CC(C(=O)Nc1ccc(-n2ccccc2=O)cc1F)N1CC[C@@H](NC(=O)c2ccc(Cl)s2)C1 (stereo partly drawn) [Example 6, 5-chloro-thiophene-2-carboxylic acid ((R)-1-{1-[2-fluoro-4-(2-oxo-pyridin-1-yl)-phenylcarbamoyl]-ethyl}-pyrrolidin-3-yl)-amide] | 0.017 µM
